# Laboratory results from patent US11571418B2, “Platinum compounds that inhibit constitutive STAT3 signaling and induce cell cycle arrest and apoptosis of malignant cells” (H. LEE MOFFITT CANCER CENTER AND RESEARCH INSTITUTE, INC., priority 2011, dated 2023).
# Key:
# [1] = tested on: Cyclin D1; assay: Cyclin D1 detection, in situ and Western blot; type: cell-based, human; conditions: MDA-MB-435, 48 h
# Protocol: FIGS. 8A and 8B. Inhibition of Cyclin D1 and Bcl-xL induction by PLATINUM-401. Viral Src-transformed fibroblasts (NIH3T3/v-Src) and human breast cancer cell line MDA-MB-435 that contain constitutively-activated Stat3 were treated with or without platinum complex for 48 h. Cells were processed for immunohistochemistry, or cell lysates were prepared from cells and subjected to 5% PAGE and Western blot analysis, as indicated in “Materials and Methods.” (FIG. 8A) Detection of Cyclin D1; (FIG. 8B) Detection of Bcl-xL. Positions of Cyclin D1 and Bcl-xL proteins are shown. Beta-actin levels are shown for normalizing for equal total protein. Data are representative of 3 independent determinations.
# Western blot—Whole-cell lysates were prepared in boiling sodium dodecyl sulfate (SDS) sample-loading buffer to extract total proteins from the cytoplasm and nucleus. Equivalent amounts of total cellular protein were electrophoresed on an SDS-10% polyacrylamide gel and transferred onto nitrocellulose membranes. Probing of nitrocellulose membranes with primary antibodies and detection of horseradish peroxidase-conjugated secondary antibodies by enhanced chemiluminescence (Amersham, Piscataway, N.J.) were performed as previously described (Garcia et al., 2001; Turkson et al., 2004b; Zhang et al., 2000). […]
# [2] = tested on: hSIE oligonucleotide probe; assay: Pre-treatment of hSIE oligonucleotide with compound, then Stat3 binding by EMSA; conditions: oligonucleotide treated 30 min, then radiolabeled
# Protocol: To investigate the possibility that PLATINUM-401 might alter the integrity of the hSIE oligonucleotide probe that is used in the DNA-binding activity studies and thereby inhibit Stat3 binding, the oligonucleotide was first treated with PLATINUM-401 for 30 min. Pre-treated oligonucleotide was then radiolabeled and tested for its ability to bind to activated Stat3 in vitro. […] While PLATINUM-401 was in direct contact with the oligonucleotide probe during the pre-treatment stage and prior to radiolabeling of the probe, it is unlikely to have been retained with the oligonucleotide probe following purification of the probe and therefore would not have come into contact with Stat3 protein at the time of the in vitro DNA-binding assay.
# [3] = tested on: pLucSRE; assay: c-fos promoter-driven luciferase reporter assay; type: cell-based; conditions: transient transfection in mouse fibroblasts
# Protocol: FIGS. 3A-3D. Inhibition of Stat3-mediated gene expression by PLATINUM-401. (FIG. 3A) and (FIG. 3B) v-Src-transformed mouse fibroblasts that stably express Stat3-dependent (NIH3T3/v-Src/pLucTKS3) and Stat3-independent (NIH3T3/v-Src/pRLSRE) luciferase reporters or β-galactosidase (β-gal), as well as normal mouse fibroblast (NIH3T3) transiently transfected with pLucTKS3, pGL2-VEGF-Luc, NFkB-Luc or pLucSRE together with or without v-Src were treated with or without PLATINUM-401 for 48 h. Cytosolic extracts were then prepared from cells for luciferase and […] activities measurements. […]
# Cell proliferation and TUNEL assays—Proliferating cells were first treated with or without PLATINUM-401 for up to 48 h. A portion of cells were harvested for BrdU incorporation following the manufacturer's (BD Biosciences Pharmingen, San Diego, Calif.) instructions and analyzed by flow cytometry. Harvested cells were also analyzed for apoptosis via detection of TdT-mediated dUTP nick-end labeling (TUNEL) assay using Apoptosis Detection Systems Fluorescein according to the manufacturer's (Roche, Indianapolis, Ind.) instructions. […]
# To further investigate the activities of PLATINUM-401, the inventors treated malignant cells and measured effects on Stat3 signaling. […]
smiles,measurement,setting,value
CC(O)CN1CCN(CC(C)O)CC1 (stereo not drawn) [PLATINUM-401],Cyclin D1 level,[1],significantly diminished
same,effect of pre-treatment of hSIE oligonucleotide on its ability to bind activated Stat3,[2],no observable effect
same,induction of c-fos promoter-driven luciferase reporter activity,[3],no inhibitory effects
